For 2 molecules, remaining activity results are on record in paper doi:10.1101/2024.08.13.607785v1 (biorxiv, 2024).

The structures appear in SMILES notation. Like-named read-outs stand apart in the source and are kept apart here.

Common to all, as to test: biochemical
Common to all, as to parameters: species or system human cell line lysate

For assay [1], the target named is Interleukin-1 receptor-associated kinase 4 ; IRAK4 ; Q9NWZ3 (Homo sapiens, UniProt Q9NWZ3).
The target of assay [2] is Mitogen-activated protein kinase 11 ; MAPK11 ; Q15759 (Homo sapiens, UniProt Q15759).
Assay [3] has as its target Bone morphogenetic protein receptor type-1A ; BMPR1A ; P36894 (Homo sapiens, UniProt P36894).
Assay [4] addresses Serine/threonine-protein kinase Nek3 ; NEK3 ; P51956 (Homo sapiens, UniProt P51956).
Assay [5] has as its target Microtubule-associated serine/threonine-protein kinase 3 ; MAST3 ; O60307 (Homo sapiens, UniProt O60307).
Assay [6] deals with Serine/threonine-protein kinase D2 ; PRKD2 ; Q9BZL6 (Homo sapiens, UniProt Q9BZL6).
In assay [7] the target is Ephrin type-A receptor 4 ; EPHA4 ; P54764 (Homo sapiens, UniProt P54764).
Assay [8] has as its target Isoform GRK6B of G protein-coupled receptor kinase 6 ; GRK6 ; P43250-2 (Homo sapiens, UniProt P43250).
For assay [9], the target named is Serine/threonine-protein kinase PAK 5 ; PAK5 ; Q9P286 (Homo sapiens, UniProt Q9P286).
Assay [10] has as its target MAP/microtubule affinity-regulating kinase 4 ; MARK4 ; Q96L34 (Homo sapiens, UniProt Q96L34).
The target of assay [11] is T1, Tyrosine-protein kinase Tec ; TEC ; P42680 (Homo sapiens, UniProt P42680).
T1 sequence (P42680 1-631): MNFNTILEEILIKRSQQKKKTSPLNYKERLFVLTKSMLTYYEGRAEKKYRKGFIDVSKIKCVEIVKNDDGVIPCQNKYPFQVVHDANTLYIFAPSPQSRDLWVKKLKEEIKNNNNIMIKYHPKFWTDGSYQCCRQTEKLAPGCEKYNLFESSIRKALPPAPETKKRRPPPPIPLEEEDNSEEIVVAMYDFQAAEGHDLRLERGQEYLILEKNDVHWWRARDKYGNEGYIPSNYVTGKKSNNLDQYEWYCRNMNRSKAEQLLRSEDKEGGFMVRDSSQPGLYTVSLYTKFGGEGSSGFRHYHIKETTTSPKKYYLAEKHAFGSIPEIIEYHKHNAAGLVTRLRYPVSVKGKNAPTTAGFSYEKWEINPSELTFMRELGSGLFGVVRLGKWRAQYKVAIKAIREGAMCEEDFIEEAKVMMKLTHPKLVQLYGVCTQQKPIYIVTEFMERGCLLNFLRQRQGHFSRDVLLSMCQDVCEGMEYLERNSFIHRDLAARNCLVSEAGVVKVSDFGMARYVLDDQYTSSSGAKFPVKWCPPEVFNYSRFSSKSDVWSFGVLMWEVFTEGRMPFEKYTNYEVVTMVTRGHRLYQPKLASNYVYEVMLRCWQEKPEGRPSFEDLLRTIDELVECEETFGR

Assay [12] has as its target Mitogen-activated protein kinase kinase kinase 11 ; MAP3K11 ; Q16584 (Homo sapiens, UniProt Q16584).
Assay [13] deals with DNA-dependent protein kinase catalytic subunit ; PRKDC ; P78527 (Homo sapiens, UniProt P78527).
The target in assay [14] is Beta-adrenergic receptor kinase 1 ; GRK2 ; P25098 (Homo sapiens, UniProt P25098).
Assay [15] concerns the target Serine/threonine-protein kinase 35 ; STK35 ; Q8TDR2 (Homo sapiens, UniProt Q8TDR2).
Assay [16] deals with Isoform 3 of Serine/threonine-protein kinase MARK1 ; MARK1 ; Q9P0L2-3 (Homo sapiens, UniProt Q9P0L2).
In assay [17] the target is Dual specificity protein kinase CLK3 ; CLK3 ; P49761 (Homo sapiens, UniProt P49761).
In assay [18] the target is Fructosamine-3-kinase ; FN3K ; Q9H479 (Homo sapiens, UniProt Q9H479).
The target of assay [19] is Isoform Beta-II of Protein kinase C beta type ; PRKCB ; P05771-2 (Homo sapiens, UniProt P05771).
[20] abbreviates: read-out: BAY-1143572 (10 µM) / %Intensity relative to DMSO.
The mark [21] stands for this setting: read-out: BAY-1251152 (10 µM) / %Intensity relative to DMSO.

Serine/threonine-protein kinase D2 ; PRKD2 ; Q9BZL6, sequence (Q9BZL6 whole entry, one chain of several): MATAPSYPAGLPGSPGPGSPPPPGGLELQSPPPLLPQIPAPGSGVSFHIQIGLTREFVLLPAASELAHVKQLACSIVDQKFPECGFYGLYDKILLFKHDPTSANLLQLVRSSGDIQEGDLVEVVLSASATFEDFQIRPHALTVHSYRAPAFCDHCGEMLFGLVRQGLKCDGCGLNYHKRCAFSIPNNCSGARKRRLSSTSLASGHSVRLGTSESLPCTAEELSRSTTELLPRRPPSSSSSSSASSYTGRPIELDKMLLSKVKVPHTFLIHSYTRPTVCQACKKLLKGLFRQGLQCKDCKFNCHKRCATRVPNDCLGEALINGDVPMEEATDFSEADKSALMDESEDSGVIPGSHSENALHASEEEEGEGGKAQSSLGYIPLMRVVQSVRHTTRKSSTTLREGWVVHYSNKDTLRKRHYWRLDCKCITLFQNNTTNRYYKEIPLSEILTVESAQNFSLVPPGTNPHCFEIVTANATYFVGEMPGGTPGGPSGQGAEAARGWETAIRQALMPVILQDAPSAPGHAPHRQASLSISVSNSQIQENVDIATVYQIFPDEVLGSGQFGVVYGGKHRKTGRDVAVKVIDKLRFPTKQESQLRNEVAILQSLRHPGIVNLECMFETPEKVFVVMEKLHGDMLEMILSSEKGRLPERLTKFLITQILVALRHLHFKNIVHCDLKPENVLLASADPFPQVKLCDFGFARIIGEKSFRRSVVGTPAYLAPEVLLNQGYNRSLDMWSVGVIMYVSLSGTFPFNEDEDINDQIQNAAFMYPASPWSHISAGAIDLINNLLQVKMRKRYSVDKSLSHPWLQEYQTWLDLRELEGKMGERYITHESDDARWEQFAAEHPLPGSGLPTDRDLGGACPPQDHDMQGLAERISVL
Isoform GRK6B of G protein-coupled receptor kinase 6 ; GRK6 ; P43250-2, sequence (P43250 whole entry, canonical isoform): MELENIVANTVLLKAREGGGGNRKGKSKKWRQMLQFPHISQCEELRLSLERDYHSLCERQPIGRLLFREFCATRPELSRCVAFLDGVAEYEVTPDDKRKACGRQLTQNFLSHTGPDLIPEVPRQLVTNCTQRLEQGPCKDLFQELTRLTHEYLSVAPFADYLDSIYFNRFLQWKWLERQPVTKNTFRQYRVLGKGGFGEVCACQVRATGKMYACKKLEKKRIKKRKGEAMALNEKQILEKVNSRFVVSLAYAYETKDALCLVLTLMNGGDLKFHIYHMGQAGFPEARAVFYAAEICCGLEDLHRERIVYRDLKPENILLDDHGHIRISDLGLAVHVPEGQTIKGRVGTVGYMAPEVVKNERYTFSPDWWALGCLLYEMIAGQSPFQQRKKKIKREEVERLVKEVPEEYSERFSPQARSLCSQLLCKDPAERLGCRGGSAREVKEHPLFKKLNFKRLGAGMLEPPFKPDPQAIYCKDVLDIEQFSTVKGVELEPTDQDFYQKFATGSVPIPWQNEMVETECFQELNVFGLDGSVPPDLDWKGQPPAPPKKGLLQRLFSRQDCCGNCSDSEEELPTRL
Interleukin-1 receptor-associated kinase 4 ; IRAK4 ; Q9NWZ3, sequence (Q9NWZ3 whole entry): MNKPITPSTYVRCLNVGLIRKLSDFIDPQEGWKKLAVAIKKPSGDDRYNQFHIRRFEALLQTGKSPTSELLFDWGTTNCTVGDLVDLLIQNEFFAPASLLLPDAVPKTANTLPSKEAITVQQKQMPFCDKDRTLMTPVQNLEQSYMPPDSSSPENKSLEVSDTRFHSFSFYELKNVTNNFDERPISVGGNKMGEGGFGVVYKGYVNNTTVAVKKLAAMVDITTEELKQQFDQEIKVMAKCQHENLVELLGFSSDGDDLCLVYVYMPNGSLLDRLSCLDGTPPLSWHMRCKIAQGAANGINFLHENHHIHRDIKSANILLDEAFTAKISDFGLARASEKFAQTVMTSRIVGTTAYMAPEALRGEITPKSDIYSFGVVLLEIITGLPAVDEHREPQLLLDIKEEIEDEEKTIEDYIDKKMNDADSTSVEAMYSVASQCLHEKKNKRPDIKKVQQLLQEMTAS
Mitogen-activated protein kinase kinase kinase 11 ; MAP3K11 ; Q16584, sequence (Q16584 whole entry): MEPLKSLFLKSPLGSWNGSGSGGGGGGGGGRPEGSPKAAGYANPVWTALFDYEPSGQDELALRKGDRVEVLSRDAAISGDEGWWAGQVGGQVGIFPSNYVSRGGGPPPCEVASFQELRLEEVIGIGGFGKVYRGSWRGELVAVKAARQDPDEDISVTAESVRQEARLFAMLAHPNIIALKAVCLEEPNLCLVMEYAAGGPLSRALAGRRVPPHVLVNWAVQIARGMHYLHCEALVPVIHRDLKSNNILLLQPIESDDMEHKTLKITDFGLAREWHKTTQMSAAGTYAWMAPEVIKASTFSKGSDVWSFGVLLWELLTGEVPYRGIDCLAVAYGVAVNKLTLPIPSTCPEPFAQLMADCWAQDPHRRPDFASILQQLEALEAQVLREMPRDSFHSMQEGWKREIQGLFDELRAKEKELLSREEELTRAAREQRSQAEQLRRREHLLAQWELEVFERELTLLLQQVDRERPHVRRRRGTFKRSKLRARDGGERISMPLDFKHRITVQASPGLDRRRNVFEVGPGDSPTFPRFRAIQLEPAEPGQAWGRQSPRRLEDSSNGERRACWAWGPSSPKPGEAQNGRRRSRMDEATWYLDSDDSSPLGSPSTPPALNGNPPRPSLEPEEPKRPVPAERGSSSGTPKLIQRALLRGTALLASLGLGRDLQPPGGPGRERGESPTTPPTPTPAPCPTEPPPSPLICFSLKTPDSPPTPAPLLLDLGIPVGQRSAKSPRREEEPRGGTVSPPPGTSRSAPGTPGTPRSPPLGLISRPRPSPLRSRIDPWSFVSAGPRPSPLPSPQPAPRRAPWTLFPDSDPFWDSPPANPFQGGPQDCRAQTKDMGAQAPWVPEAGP
MAP/microtubule affinity-regulating kinase 4 ; MARK4 ; Q96L34, sequence (Q96L34 whole entry, one chain of several): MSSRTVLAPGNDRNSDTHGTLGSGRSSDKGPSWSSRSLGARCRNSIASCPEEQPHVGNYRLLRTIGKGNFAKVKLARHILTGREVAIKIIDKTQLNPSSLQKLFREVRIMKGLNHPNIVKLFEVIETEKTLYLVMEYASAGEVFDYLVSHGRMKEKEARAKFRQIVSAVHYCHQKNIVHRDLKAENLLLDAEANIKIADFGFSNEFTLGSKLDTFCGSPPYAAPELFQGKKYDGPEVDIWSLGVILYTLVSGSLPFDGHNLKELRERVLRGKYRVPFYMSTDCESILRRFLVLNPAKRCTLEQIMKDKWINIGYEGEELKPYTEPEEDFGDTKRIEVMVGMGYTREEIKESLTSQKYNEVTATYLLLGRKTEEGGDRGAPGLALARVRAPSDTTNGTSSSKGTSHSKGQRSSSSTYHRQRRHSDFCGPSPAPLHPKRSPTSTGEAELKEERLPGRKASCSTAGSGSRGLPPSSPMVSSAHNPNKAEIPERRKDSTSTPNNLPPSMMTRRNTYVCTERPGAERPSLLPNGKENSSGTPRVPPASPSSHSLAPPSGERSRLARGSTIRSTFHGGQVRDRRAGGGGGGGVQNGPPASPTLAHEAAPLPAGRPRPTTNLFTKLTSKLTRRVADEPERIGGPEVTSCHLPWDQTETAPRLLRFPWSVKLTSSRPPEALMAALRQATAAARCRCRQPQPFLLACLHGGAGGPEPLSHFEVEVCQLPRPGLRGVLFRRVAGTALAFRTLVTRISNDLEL
Ephrin type-A receptor 4 ; EPHA4 ; P54764, sequence (P54764 whole entry, canonical isoform): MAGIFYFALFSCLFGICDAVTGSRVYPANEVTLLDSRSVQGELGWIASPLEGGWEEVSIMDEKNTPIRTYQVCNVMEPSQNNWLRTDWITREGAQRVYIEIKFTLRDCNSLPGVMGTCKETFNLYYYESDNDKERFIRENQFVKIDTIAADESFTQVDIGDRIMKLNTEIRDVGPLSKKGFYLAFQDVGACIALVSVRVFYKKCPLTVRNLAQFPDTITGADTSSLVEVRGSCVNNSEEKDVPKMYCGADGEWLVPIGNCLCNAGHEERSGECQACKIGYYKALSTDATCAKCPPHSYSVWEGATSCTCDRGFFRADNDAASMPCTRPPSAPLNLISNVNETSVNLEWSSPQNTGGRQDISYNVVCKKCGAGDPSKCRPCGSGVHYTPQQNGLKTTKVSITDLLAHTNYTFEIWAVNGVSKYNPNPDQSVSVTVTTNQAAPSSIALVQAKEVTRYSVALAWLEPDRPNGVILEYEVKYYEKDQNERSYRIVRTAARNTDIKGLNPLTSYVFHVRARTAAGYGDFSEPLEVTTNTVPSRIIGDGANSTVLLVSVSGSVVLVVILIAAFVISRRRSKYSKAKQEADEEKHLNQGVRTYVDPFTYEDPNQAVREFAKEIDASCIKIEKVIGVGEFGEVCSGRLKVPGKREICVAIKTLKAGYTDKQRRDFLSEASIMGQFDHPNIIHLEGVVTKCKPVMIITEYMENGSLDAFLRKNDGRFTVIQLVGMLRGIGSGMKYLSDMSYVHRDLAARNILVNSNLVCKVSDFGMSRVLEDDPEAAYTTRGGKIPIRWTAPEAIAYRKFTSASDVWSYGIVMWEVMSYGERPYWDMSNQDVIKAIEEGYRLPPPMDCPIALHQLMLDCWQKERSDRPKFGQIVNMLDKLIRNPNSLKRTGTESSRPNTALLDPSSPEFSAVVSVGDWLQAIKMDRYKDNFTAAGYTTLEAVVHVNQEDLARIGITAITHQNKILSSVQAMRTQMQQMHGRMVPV
Fructosamine-3-kinase ; FN3K ; Q9H479, sequence (Q9H479 whole entry, canonical isoform): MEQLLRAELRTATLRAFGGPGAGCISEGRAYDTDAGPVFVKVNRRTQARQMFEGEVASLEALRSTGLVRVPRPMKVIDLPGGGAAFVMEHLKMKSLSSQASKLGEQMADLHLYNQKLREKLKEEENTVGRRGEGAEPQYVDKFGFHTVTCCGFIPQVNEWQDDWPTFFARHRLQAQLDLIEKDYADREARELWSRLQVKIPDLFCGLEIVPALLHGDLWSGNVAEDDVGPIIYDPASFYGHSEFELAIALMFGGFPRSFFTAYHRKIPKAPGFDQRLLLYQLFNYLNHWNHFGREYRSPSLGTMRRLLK

For the molecule `COc1cc(F)ccc1-c1ncnc(Nc2cccc(C[S@](C)(=N)=O)c2)n1` [BAY-1143572], the remaining activity at 10 µM in assay [1] (setting [20]) was determined as 121%; in assay [2] (setting [20]), 116%; in [3] (setting [20]), 164%; in assay [4] (setting [20]), 88.7%; in assay [5] (setting [20]), 79.4%; in assay [6] (setting [20]) it was 99.6%. The remaining activity at 10 µM is 91.7% in assay [7] (setting [20]); 137% in [8] (setting [20]); 138% in assay [9] (setting [20]); 110% in [10] (setting [20]); 89.2% in assay [11] (setting [20]); 105% in assay [12] (setting [20]). Moreover, the remaining activity at 10 µM amounted to 106% in assay [13] (setting [20]); 142% in assay [14] (setting [20]); 115% in assay [15] (setting [20]); 80.9% in assay [16] (setting [20]); 113% in [17] (setting [20]); 114% in [18] (setting [20]). Also, the remaining activity at 10 µM in [19] (setting [20]) was 121%.
In the case of `COc1cc(F)ccc1-c1cc(Nc2cc(CS(C)(=N)=O)ccn2)ncc1F` (centres unmarked) [BAY-1251152], the remaining activity at 10 µM in assay [1] (setting [21]) was 112%; in [2] (setting [21]), 107%; in assay [3] (setting [21]), 122%; in assay [4] (setting [21]), 112%; in [5] (setting [21]) it was 82.9%; in [6] (setting [21]), 96.3%. Also, the remaining activity at 10 µM in assay [7] (setting [21]) was 105%; in assay [8] (setting [21]), 111%; in assay [9] (setting [21]) it was 143%; in assay [10] (setting [21]), 105%; in assay [11] (setting [21]), 104%; in assay [12] (setting [21]), 81%. Moreover, the remaining activity at 10 µM in [13] (setting [21]) was determined as 107%; in [14] (setting [21]), 131%; in [15] (setting [21]), 113%; in [16] (setting [21]) it was 84.7%; in [17] (setting [21]) it was 115%; in assay [18] (setting [21]) it was 106%. Moreover, the remaining activity at 10 µM in assay [19] (setting [21]) was 119%.
